From US11787782B2, “Combinations of a 4-pyrimidinesulfamide derivative with active ingredients for the treatment of endothelin related diseases” (IDORSIA PHARMACEUTICALS LTD, priority 2017, dated 2023)

What was measured:
male Wistar rats = assay: Effect on fluid retention (haematocrit) in Wistar rats; type: in vivo, rat; details: single oral dose 1-30 mg/kg, 24 hours after administration
Method: A decrease in haematocrit (Hct) or haemoglobin occurs secondary to an increase in plasma volume and can be used as a marker of fluid retention. A single oral dose of aprocitentan (1-30 mg/kg) or vehicle (gelatin) was administered by gavage to male Wistar rats. Twenty-four hours after administration, sublingual blood was sampled under isoflurane-induced anesthesia. Haematocrit was measured using a hematology analyser.

[1] = system: conscious, male hypertensive deoxycorticosterone acetate salt rats; assay: Acute effects on top of Exforge HCT in DOCA-salt rats (telemetry); type: in vivo, rat; details: for Blood pressure when added on top of Exforge HCT: aprocitentan 10 mg/kg or spironolactone 300 mg/kg oral, Exforge HCT 3.2/0.2/0.5 mg/kg
Excerpt: Res. (1975), 36, 300-309). In the DOCA-salt rats, hypertension is induced by the combination of unilateral nephrectomy, implantation of pellets of the mineralocorticoid analog DOCA, and provision of 1% sodium chloride in drinking water. 7-9 DOCA-salt rats per treatment group were used for this test. The results obtained regarding MAP are summarised in FIGS. 21 and 22 wherein each data point is presented as a 6-hour mean.

[2] = in comparison to corresponding alkylated derivatives; cited from earlier work
[3] = system: conscious, male hypertensive deoxycorticosterone acetate salt rats; assay: Acute effects on MAP and HR by telemetry in DOCA-salt rats; type: in vivo, rat
Method: The acute effects of ACT-132577 on blood pressure, in particular on mean arterial blood pressure (hereafter “MAP”), and heart rate (hereafter “HR”) were evaluated by means of telemetry in conscious, male hypertensive deoxycorticosterone acetate salt rats (hereafter “DOCA-salt rats”—see details about this model in Gavras et al., Circ. Res. (1975), 36, 300-309). In the DOCA-salt rats, hypertension is induced by the combination of unilateral nephrectomy, implantation of pellets of the mineralocorticoid analog DOCA, and provision of 1% sodium chloride in drinking water. Groups of 6-11 DOCA-salt rats were used for the vehicle (7.5% gelatin aquous solution) and each dose of ACT-132577 tested (0.3, 1, 3, 10, 30, 100, and 300 mg/kg). Effects of ACT-132577 on HR and MAP were calculated for individual animals relative to the 24 h period before administering. The results obtained regarding MAP (maximal MAP decrease observed over 6 consecutive hours) are summarised in FIG. 10 (data are presented as mean±standard error of the mean). In summary, a dose of 10 mg/kg ACT-132577 decreased MAP by 29±6 mm Hg in DOCA-salt rats. In contrast to MAP, HR was not affected.

[4] = system: conscious, male hypertensive deoxycorticosterone acetate salt rats; assay: Chronic effects of repeated oral administration in DOCA-salt rats; type: in vivo, rat
Method: The chronic effects of repeated administrations of doses of 1, 10 and 100 mg/kg/day of ACT-132577, in particular mean arterial blood pressure (hereafter “MAP”), and heart rate (hereafter “HR”), were evaluated in conscious, male hypertensive deoxycorticosterone acetate salt rats (hereafter “DOCA-salt rats”-see details about this model in Gavras et al., Circ. Res. (1975), 36, 300-309). In the DOCA-salt rats, hypertension is induced by the combination of unilateral nephrectomy, implantation of pellets of the mineralocorticoid analog DOCA, and provision of 1% sodium chloride in drinking water. The results of the DOCA-salt rats treated with ACT-132577 were compared to those obtained for Wistar rats or for DOCA-salt rats that received only the vehicle (4% gelatin aquous solution).

[5] = system: conscious, male spontaneously hypertensive rats; assay: Acute effects on MAP and HR by telemetry in spontaneously hypertensive rats; type: in vivo, rat; details: SHRs
Method: The acute effects of ACT-132577 on blood pressure, in particular on mean arterial blood pressure (hereafter “MAP”), and heart rate (hereafter “HR”) were evaluated by means of telemetry in conscious, male spontaneously hypertensive rats (hereafter “SHRs”—see details about this model in Atanur et al., Genome Res. (2010), 20, 791-803). Groups of 4-6 SHRs were used for the vehicle (7.5% gelatin aquous solution) and each dose of ACT-132577 tested (1, 3, 10, 30, 100, and 300 mg/kg). Effects of ACT-132577 on HR and MAP were calculated for individual animals relative to the 24 h period before administering. The results obtained regarding MAP (maximal MAP decrease observed over 6 consecutive hours) are summarised in FIG. 11 (data are presented as mean±standard error of the mean). In summary, a dose of 100 mg/kg ACT-132577 decreased MAP by 18±4 mm Hg in SHRs. In contrast to MAP, HR was not affected.

[6] = system: conscious, male spontaneously hypertensive rats; assay: Acute effects on top of Exforge HCT in SHRs (telemetry); type: in vivo, rat; details: for Blood pressure when added on top of Exforge HCT: aprocitentan 100 mg/kg or spironolactone 300 mg/kg oral, Exforge HCT 1.6/0.1/0.25 mg/kg
Method: The acute effects of Exforge HCT® (i.e. a fixed dose combination of valsartan/amlodipine/hydrochlorothiazide; dosage adapted for 1.6 mg/kg/0.1 mg/kg/0.25 mg/kg for valsartan/amlodipine/hydrochlorothiazide, respectively) on blood pressure, in particular on mean arterial blood pressure (hereafter “MAP”), and heart rate (hereafter “HR”) in combination with ACT-132577 or spironolactone were also evaluated by means of telemetry in conscious, male spontaneously hypertensive rats (hereafter “SHRs”-see details about this model in Atanur et al., Genome Res. (2010), 20, 791-803).
9 SHRs per treatment group were used for this test. To match the maximal effect on blood pressure of co-administered drug in this model, aprocitentan 100 mg/kg was administrated orally on the 3rd day following 3-day oral administration of Exforge HCT® mg/kg and spironolactone 300 mg/kg was co-administered orally with Exforge HCT® on the 1st day followed by 2 days of Exforge HCT® administration. The results obtained regarding MAP are summarised in FIGS. 19 and 20 wherein each data point is presented as a 6-hour mean.

[7] = system: conscious, male hypertensive Dahl salt-sensitive rats; assay: Acute effects on MAP and HR by telemetry in Dahl salt-sensitive rats; type: in vivo, rat; details: Dahl-S rats
Method: The acute effects of ACT-132577 on blood pressure, in particular on mean arterial blood pressure (hereafter “MAP”), and heart rate (hereafter “HR”) were evaluated by means of telemetry in conscious, male hypertensive Dahl salt-sensitive rats (hereafter “Dahl-S rats”—see details about this model in Rapp, Hypertension (1982), 4, 753-763). Elevated blood pressure is induced in Dahl-S rats by providing 1% sodium chloride in drinking water. Groups of 6-7 Dahl-S rats were used for the vehicle (7.5% gelatin aqeuous solution) and each dose of ACT-132577 tested (0.3, 1, 3, 10, 30, 100, and 300 mg/kg). Effects of ACT-132577 on HR and MAP were calculated for individual animals relative to the 24 h period before administering. The results obtained regarding MAP (maximal MAP decrease observed over 6 consecutive hours) are summarised in FIG. 9 (data are presented as mean±standard error of the mean). In summary, a dose of 10 mg/kg ACT-132577 decreased MAP by 19±4 mm Hg in Dahl-S rats. In contrast to MAP, HR was not affected.

[8] = Hygroscopicity by gravimetric vapor sorption (GVS); type: physicochemical
Excerpt: Mass increase of a sample as obtained according to Example 1 in the first cycle from 40% r.h. to 80% r.h. corresponds to 0.4%. At 95% r.h. 2.2% moisture were taken up in a reversible way without hysteresis upon drying.

[9] = Storage at room temperature (crystal form stability, XRPD and HPLC control); type: physicochemical; details: 20-25° C.
Method: All XRPD patterns for the solid forms described herein have been obtained as described hereafter. X-ray powder diffraction patterns were collected on a Bruker D8 Advance X-ray diffractometer equipped with a Lynxeye detector operated with CuKα-radiation in reflection mode (coupled two Theta/Theta). Typically, the X-ray tube was run at of 40 kV/40 mA. A step size of 0.02° (2θ) and a step time of 76.8 sec over a scanning range of 3-50° in 2θ were applied. The divergence slit was set to fixed 0.3. Powders were slightly pressed into a silicon single crystal sample holder with depth of 0.5 mm and samples were rotated in their own plane during the measurement. Diffraction data are reported using combined Cu Kα1 and Kα2 radiation, without Kα2 stripping. The accuracy of the 2θ values as provided herein is in the range of +/−0.1-0.2° as it is generally the case for conventionally recorded X-ray powder diffraction patterns. A sample of Form A crystals of the COMPOUND (as obtained according to Example 1 above) has been stored at a temperature of 20-25° C. at 92% relative humidity for 2 months. […] The same result was obtained after storage for 8 weeks under the above conditions. […] A sample of Form B crystals of a dichloromethane solvate of the COMPOUND (as obtained according to Example 2 above) has been stored in a closed vial ([…] of Form B crystals being placed in a closed 4 mL vial) at a temperature of 20-25° C. for about 3 weeks. […] A sample of Form K crystals of a dimethylsulfoxide solvate of the COMPOUND (as obtained according to Example 7 above) has been stored in a closed vial ([…] of Form K crystals being placed in a closed 4 mL vial) at a temperature of 20-25° C. for about 3 weeks.

patients with rHT = details: 14 week phase 3 trial, cited from earlier work
[10] = 10 mg/kg, mean±standard error of the mean
[11] = DOCA-salt rats, 1, 10 and 100 mg/kg/day oral for 4 weeks
[12] = DOCA-salt rats, chronic oral administration

## NS(=O)(=O)Nc1ncnc(OCCOc2ncc(Br)cn2)c1-c1ccc(Br)cc1 [ACT-132577, {5-(4-bromo-phenyl)-6-[2-(5-bromo-pyrimidin-2-yloxy)-ethoxy]-pyrimidin-4-yl}-sulfamide]
Male Wistar rats
  Haematocrit (Hct), marker of fluid retention: did not impact on haematocrit
[1]
  Blood pressure when added on top of Exforge HCT: further reduced blood pressure
[1]; aprocitentan 10 mg/kg vs spironolactone 300 mg/kg
  Blood pressure reduction compared with spironolactone, on top of Exforge HCT: greater blood pressure reduction than spironolactone
[2]
  Clearance in vivo: much shorter clearance
  Half-life in vivo: much longer half-life
[3]; [10]
  MAP decrease (maximal decrease over 6 consecutive hours): 29±6 mm Hg
[3]; doses 0.3-300 mg/kg
  Heart rate (HR): not affected
[4]; [11]
  DOCA-salt-induced increase in MAP: dose-dependently attenuated the DOCA-salt-induced increase in MAP
  Heart rate (HR): without changing HR
[4]; [12]
  Left ventricular hypertrophy: tended to decrease left ventricular hypertrophy
  Plasma concentrations of N-terminal pro-brain natriuretic peptide (NTproBNP): dose-dependent decrease
  Renal blood flow: dose-dependently increased renal blood flow
  Renal vascular resistance: decreased renal vascular resistance
[5]; 100 mg/kg, mean±standard error of the mean
  MAP decrease (maximal decrease over 6 consecutive hours): 18±4 mm Hg
[5]; doses 1-300 mg/kg
  Heart rate (HR): not affected
[6]
  Blood pressure when added on top of Exforge HCT: further reduced blood pressure
[6]; aprocitentan 100 mg/kg vs spironolactone 300 mg/kg
  Blood pressure reduction compared with spironolactone, on top of Exforge HCT: greater blood pressure reduction than spironolactone
[7]; [10]
  MAP decrease (maximal decrease over 6 consecutive hours): 19±4 mm Hg
[7]; doses 0.3-300 mg/kg
  Heart rate (HR): not affected

## NS(=O)(=O)Nc1ncnc(OCCOc2ncc(Br)cn2)c1-c1ccc(Br)cc1 [Form A, {5-(4-bromo-phenyl)-6-[2-(5-bromo-pyrimidin-2-yloxy)-ethoxy]-pyrimidin-4-yl}-sulfamide]
[8]; at 95% r.h., reversible, without hysteresis upon drying
  Moisture taken up: 2.2%
[8]; first cycle from 40% r.h. to 80% r.h.
  Mass increase: 0.4%
[8]; sample obtained according to Example 1
  Hygroscopicity (GVS): slightly hygroscopic
[9]; 92% relative humidity, 2 months
  Crystal form by X-ray powder diffraction after storage: still consisting only in Form A crystals
[9]; 92% relative humidity, 8 weeks
  Crystal form by X-ray powder diffraction after storage: same result
  HPLC control after storage (change in peak area %, degradation): no significant degradation

## NS(=O)(=O)Nc1ncnc(OCCOc2ncc(Br)cn2)c1-c1ccc(Br)cc1 [Form B, {5-(4-bromo-phenyl)-6-[2-(5-bromo-pyrimidin-2-yloxy)-ethoxy]-pyrimidin-4-yl}-sulfamide]
[9]; closed 4 mL vial, about 3 weeks
  Crystal form by X-ray powder diffraction after storage in a closed vial: transformed into Form A crystals

## COc1cc(OC)nc(O[C@H](C(=O)O)C(OC)(c2ccccc2)c2ccccc2)n1 [darusentan]
Patients with rHT; 12% in each of the other groups
  Fluid retention/edema (most frequent adverse event): 28%
Patients with rHT
  Primary endpoint systolic blood pressure: failed to show significant treatment effect
  Reduction of ambulatory blood pressure: demonstrated efficacy

## CC(=O)S[C@@H]1CC2=CC(=O)CC[C@]2(C)[C@H]2CC[C@@]3(C)[C@@H](CC[C@@]34CCC(=O)O4)[C@H]12 [spironolactone, reference compound]
[1]
  Blood pressure when added on top of Exforge HCT: further reduced blood pressure
[6]
  Blood pressure when added on top of Exforge HCT: further reduced blood pressure
